Reference: patent publication US10577349B2 (Sanford Burnham Prebys Medical Discovery Institute, priority 2015, dated 2020)
In brackets after ≈: the same amount, converted by molar mass. Several values for one entry are separate records, joined by “and”; a condition that tells them apart may be missing. Identical values can stand only once. Like-named read-outs stand apart in the source and are kept apart here.

What was measured:
[1] = test system: UACC903 and WM1346 cell lines; test: Reverse phase protein array analysis (RPPA), average of both cell lines; assay type: cell-based, human
Method: (§1) UACC903 and WM1346 cells were treated with DMSO (controls) or 1 μM Compound 38 for 24 h in triplicate. Cells were lysed with lysis buffer (1% Triton X-100, 50 mM HEPES, pH 7.4, 150 mM NaCl, 1.5 mM MgCl2, 1 mM EGTA, 100 mM NaF, 10 mM Na pyrophosphate, 1 mM Na3VO4, 10% glycerol, with freshly added protease and phosphatase inhibitors) and centrifuged at 13,000 g for 20 minutes. Denatured protein lysates containing the same amount of protein were then subjected to RPPA analysis at the RPPA Core Facility, Md. Anderson Cancer Center, as previously described (Tibes. R., et al. Reverse phase protein array: validation of a novel proteomic technology and utility for analysis of primary leukemia specimens and hematopoietic stem cells. Molecular cancer therapeutics 5, 2512-2521 (2006)),
(§2) A reverse phase protein array (RPPA) analysis of BRAF- and NRAS-mutant melanomas was performed to identify protein networks affected by Compound 38 (Table 4).

A375 tumors = test: A375 xenograft in nude mice; assay type: in vivo
Method: All animal studies were conducted in the SBMRI Animal Facility in accordance with the Institutional Animal Care and Use Committee guidelines. Six-week-old female nu/nu mice were purchased Harlan Laboratories (Indianapolis, Ind.) and allowed to acclimatize for 1 week. A375 cells (1×10^6, suspended in 200 μL sterile PBS) were injected into subcutaneous flank tissue. When the xenograft size reached ˜250 mm^3, mice were sorted into different groups. For PLX4720 and Compound 38 combination experiments, mice were either fed PLX4720-containing chow alone (AIN76A Roden Diet with 417 mg PLX4720/kg from Open Source Diets) for the control group or PLX4 720-containing chow plus an IP injection of 1 mg/kg Compound 38 twice a week. For MEKi plus Compound 38 experiments, PD0325901 at 20 mg/kg (formulated in 0.5% hydroxypropyl methylcellulose plus 0.2% Tween-80) was administered by oral gavage twice a week (Monday and Thursday) for the control group, or PD035901 plus IP injection of 1 mg/kg Compound 38 was administered twice a week (Tuesday and Friday). Mice were maintained in a pathogen-free environment with free access to food. Body weight and tumor volume were measured twice a week. Tumor size was measured with linear calipers and calculated using the formula: ([length in millimeters×(width in millimeters)2]/2). Mice were sacrificed after 4 weeks and tumors were fixed in Z-Fix (Anatech, Battle Creek, Mich.) and embedded in paraffin for immunohistochemistry.
A375 human melanomacells were injected subcutaneously (1×10^6) into the flank of nude mice and allowed to form established tumors. Once tumors reached approximately 250 mm3, mice were randomly grouped and subjected to the indicated treatments [chow containing PLX4720 (417 mg/kg) and/or Compound 38 (1 mg/kg, 2 times per week intraperitoneally)]. Tumor size was measured at the indicated time points. The experiment was repeated twice. […] When tumors were allowed to reach 500 mm^3 before initiating treatment, 5 of 7 […] mice subjected to BRAFi treatment alone relapsed as drug-resistant tumors (4/5 within 4-6 weeks), whereas only 3 of 6 (50%) subjected to combination treatment developed resistance, albeit more slowly (2/3 after 8 weeks; FIG. 22). […] Proteins prepared at the indicated times from A375 tumors that were subjected in vivo to treatment with Compound 38 were incubated with m^7GTP-beads to capture the eIF4F complex. Shown is time-dependent inhibition of eIF4G1 binding to eIF4E in vivo, concomitant with increased binding of inhibitory 4E-BP1 to eIF4E.

[2] = Hepatic Microsome Stability Mouse; assay type: in vitro ADME
[3] = Aqueous Solubility in pION's buffer; assay type: physicochemical
[4] = Blood chemistry following Compound 38 IP administration; assay type: in vivo; conditions: Compound 38 1 mg/kg IP, individual mice #4-#6
Excerpt: The growth of A375 tumors in immunodeficient mice subjected to either BRAFi alone or BRAFi combined with Compound 38 was monitored in vivo. Compound 38 toxicity in mice was monitored by liver function (Table 5).

[5] = test system: WM1346 (NRAS mutant) cell line; test: Reverse phase protein array analysis (RPPA), WM1346; assay type: cell-based, human; conditions: WM1346, 1 μM, 24 h
Method: as §1, §2

O=C(/C=C/c1cncc(F)c1)c1c(-c2ccccc2)c2cc(Cl)ccc2[nH]c1=O [Compound 38, 6-Chloro-3-[3-(5-fluoro-pyridin-3-yl)-acryloyl]-4-phenyl-1H-quinolin-2-one]
Ratio [Compound 38/DMSO] A-Raf, Average [1]: 0.9
Ratio [Compound 38/DMSO] AR, Average [1]: 0.82
Ratio [Compound 38/DMSO] ATM, Average [1]: 0.81
Ratio [Compound 38/DMSO] ATR, Average [1]: 0.80
Ratio [Compound 38/DMSO] BRCA2, Average [1]: 0.93
Ratio [Compound 38/DMSO] C-Raf, Average [1]: 0.92
Ratio [Compound 38/DMSO] Chk1, Average [1]: 0.91
Ratio [Compound 38/DMSO] Ets-1, Average [1]: 0.92
Ratio [Compound 38/DMSO] GCN5L2, Average [1]: 0.87
Ratio [Compound 38/DMSO] INPP4b, Average [1]: 0.9
Ratio [Compound 38/DMSO] MSH6, Average [1]: 0.77
Ratio [Compound 38/DMSO] PI3K-p85, Average [1]: 0.95
Ratio [Compound 38/DMSO] PI3K-p110-alpha, Average [1]: 0.95
Ratio [Compound 38/DMSO] Rad51, Average [1]: 0.85
Ratio [Compound 38/DMSO] Raptor, Average [1]: 0.86
Ratio [Compound 38/DMSO] Rictor_pT1135, Average [1]: 0.87
Ratio [Compound 38/DMSO] S6_pS235_S236, Average [1]: 0.67
Ratio [Compound 38/DMSO] S6_pS240_S244, Average [1]: 0.63
Ratio [Compound 38/DMSO] Stat5a, Average [1]: 0.76
Ratio [Compound 38/DMSO] Tuberin, Average [1]: 0.65
Ratio [Compound 38/DMSO] YB1, Average [1]: 0.73
Ratio [Compound 38/DMSO] c-Kit, Average [1]: 0.90
Ratio [Compound 38/DMSO] c-Myc, Average [1]: 0.76
Ratio [Compound 38/DMSO] mTOR, Average [1]: 0.80
Ratio [Compound 38/DMSO] mTOR_pS2448, Average [1]: 0.74
Ratio [Compound 38/DMSO] p70-S6K_pT389, Average [1]: 0.81
effect on the eIF4F complex in vivo (m7GTP-beads) (A375 tumors; A375 tumors, treatment with both BRAFi and Compound 38, up to 8 hours): time-dependent disruption of the eIF4F complex
Growth of established tumors (~250 mm^3), combination of BRAFi plus Compound 38 (A375 tumors; PLX4720 chow plus Compound 38 1 mg/kg, 2 times per week intraperitoneally): largely inhibited
Tumors seen in mice treated with the drug combination (A375 tumors; treatment started at ~250 mm^3, PLX4720 chow plus Compound 38 1 mg/kg IP): 0/4
Hepatic Microsome Stability (% remaining at 1 Hr) Mouse [2]: 38.69 % remaining
Hepatic Microsome Stability (% remaining at 1 Hr) Mouse (no NADPH) ([2]; no NADPH): 53.97 % remaining
solubility ([3]; aqueous buffer, pH 5.0, read-out: Aqueous Solubility in pION's buffer pH 5.0): 6.5 µg/mL (≈ 16.1 µM)
solubility ([3]; pH 6.2, aqueous buffer, read-out: Aqueous Solubility in pION's buffer pH 6.2): 6.6 µg/mL (≈ 16.3 µM)
solubility ([3]; pH 7.4, aqueous buffer, read-out: Aqueous Solubility in pION's buffer pH 7.4): 5.5 µg/mL (≈ 13.6 µM)
CRE (Kidney) [4]: <18 µmol/L
ALB (Liver) ([4]; 1 mg/kg): 32 g/L (2×) and 34 g/L
ALP (Liver) ([4]; 1 mg/kg): 88 μ/L and 54 μ/L and 24 μ/L
ALT (Liver) ([4]; 1 mg/kg): 126 μ/L and >1000 μ/L and 152 μ/L
AMY (Pancreas) ([4]; 1 mg/kg): 701 μ/L and 811 μ/L and 1625 μ/L
BUN (Kidney) ([4]; 1 mg/kg): 7.5 mmol/L and 9.9 mmol/L and 7.9 mmol/L
CA (Electrolytes) ([4]; 1 mg/kg): 2.25 mmol/L and 2.1 mmol/L and 2.14 mmol/L
GLOB (Liver) ([4]; 1 mg/kg): 10 g/L and 11 g/L (2×)
GLU (General metabolism) ([4]; 1 mg/kg): 17.6 mmol/L and 13.8 mmol/L and 16.5 mmol/L
K^+ (Electrolytes) ([4]; 1 mg/kg): 5.5 mmol/L and 8 mmol/L and 6.5 mmol/L
Na^+ (Electrolytes) ([4]; 1 mg/kg): 137 mmol/L (2×) and 146 mmol/L
PHOS (Electrolytes) ([4]; 1 mg/kg): 2.4 mmol/L and 2.27 mmol/L and 1.64 mmol/L
TBIL (Liver) ([4]; 1 mg/kg): 5 μmol/L and 4 μmol/L (2×)
TP (Liver) ([4]; 1 mg/kg): 42 g/L and 44 g/L and 43 g/L
Ratio [Compound 38/DMSO] A-Raf [5]: 0.90
Ratio [Compound 38/DMSO] AR [5]: 0.72
Ratio [Compound 38/DMSO] ATM [5]: 0.82
Ratio [Compound 38/DMSO] ATR [5]: 0.76
Ratio [Compound 38/DMSO] BRCA2 [5]: 0.90
Ratio [Compound 38/DMSO] C-Raf [5]: 0.93
Ratio [Compound 38/DMSO] Chk1 [5]: 0.94
Ratio [Compound 38/DMSO] Ets-1 [5]: 0.91
Ratio [Compound 38/DMSO] GCN5L2 [5]: 0.86
Ratio [Compound 38/DMSO] INPP4b [5]: 0.88
Ratio [Compound 38/DMSO] MSH6 [5]: 0.78
Ratio [Compound 38/DMSO] PI3K-p85 [5]: 0.96
Ratio [Compound 38/DMSO] PI3K-p110-alpha [5]: 0.95
Ratio [Compound 38/DMSO] Rad51 [5]: 0.78
Ratio [Compound 38/DMSO] Raptor [5]: 0.87
Ratio [Compound 38/DMSO] Rictor_pT1135 [5]: 0.91
Ratio [Compound 38/DMSO] S6_pS235_S236 [5]: 0.70
Ratio [Compound 38/DMSO] S6_pS240_S244 [5]: 0.65
Ratio [Compound 38/DMSO] Stat5a [5]: 0.67
Ratio [Compound 38/DMSO] Tuberin [5]: 0.68
Ratio [Compound 38/DMSO] YB1 [5]: 0.69
Ratio [Compound 38/DMSO] c-Kit [5]: 0.94
Ratio [Compound 38/DMSO] c-Myc [5]: 0.80
Ratio [Compound 38/DMSO] mTOR [5]: 0.71
Ratio [Compound 38/DMSO] mTOR_pS2448 [5]: 0.76
Ratio [Compound 38/DMSO] p70-S6K_pT389 [5]: 0.81
